The test system of one assay is GluN1 or GluN2A mutants. Briefly: Patch clamp in HEK293 cells, another 8 mutations within the defined pocket (summary). In kind it is cell-based, rat. As for the experimental part: (§1) Whole cell patch-clamp recordings were performed under voltage-clamp mode using an Axopatch 200B or 1D patch-clamp amplifier (Molecular Devices). Whole-cell currents were recorded at a holding potential of −60 mV unless indicated elsewhere, and signals were filtered at 2 kHz, digitized at 10 kHz (Digidata 1322A). Recording pipettes (3-5 MΩ) were filled with intracellular solution containing (mM): CsCl 140, HEPES 10, Mg-ATP 4, QX-314 5, pH 7.20; osmolarity, 290-295 mOsm. BAPTA (10 mM) was added in the intracellular solution (unless otherwise specified). The coverslips were continuously superfused with extracellular solution containing (mM): NaCl 140, KCl 5.4, HEPES 10, CaCl2 1.3, glucose 20, pH 7.4; osmolarity, 305-315 mOsm. NMDA-induced currents were applied by NMDA through perfusion fast-step (Warner Instruments). With perfusion fast-step system, NMDA application was achieved by using a two-square barrel glass tubing and depending on the age of the cultured neurons, CNQX (10 μM), TTX (0.5 μM) or BIC (10 μM) were added in the extracellular solution to minimize the activation of ionotropic glutamate receptors and voltage-gated sodium channels, respectively. All experiments were performed at room temperature. Recordings from at least six HEK293 cells/neurons were performed for all active compounds. […]
(In general: Patch clamp records ionic current or voltage across a cell membrane.)

A further assay concerns the target T1, GluN1/GluN2A^F115Y (Rattus norvegicus, UniProt P35439+Q00959, F115Y).
T1 construct: expressed in transfected cells; host or cells: HEK293
In words: Patch clamp in HEK293 cells expressing mutant GluN1/GluN2A F115Y. In kind it is cell-based. On the procedure: as §1

The test system of another assay is pCREB. Briefly: pCREB levels in hippocampal and cortical tissue after i.v. injection. In kind it is in vivo, rat. Conditions: 1 mg/kg i.v., 1 h post-treatment. On the procedure:
Brain tissues or cultured cells were lysed on ice in the lysis buffer and then the solution was centrifuged at 14,000 rpm for 10 min at 4° C. Next, the supernatant was collected and protein concentrations were determined using a BCA protein assay kit (Thermo Scientific, 23227). Equal amount of protein samples were mixed with 4 times sample buffer, boiled at 100° C. for 5 min, and separated on 10% sodium dodecyl sulphate-polyacrylamide gel electrophoresis (SDS-PAGE). Proteins were then transferred to Immobilon-PTM polyvynilidene fluoride (PVDF) membranes (Bio-Rad, 162-0177). The membranes were blocked with 5% non-fat milk in Tris-buffered saline containing 0.1% Tween-20 (TBST) for 1 hour at room temperature, and then incubated overnight at 4° C. with primary antibody. After washing 3×5 min in TBST, protein was visualized in the Bio-Rad Imager using ECL Western blotting substrate (Pierce, 32016). For the detection of phospho-CREB, samples prepared in the same day were used. The polyvinylidene difluoride membrane (Millipore, Bedford, Mass., USA) was incubated with primary antibody against phospho-CREB (Ser133) (Cell Signaling Technology, Beverly, Mass.). […] The band density of each protein was quantified by the Bio-Rad Quantity One software and the relative optical density was analyzed relative to loading total-CREB on the same membrane. […]

The target in the next assay is T2, GluN1/GluN2A^P178G (Rattus norvegicus, UniProt P35439+Q00959, P178G).
T2 construct: expressed in transfected cells; host or cells: HEK293
In words: Patch clamp in HEK293 cells expressing mutant GluN1/GluN2A P178G. In kind it is cell-based. As for the experimental part:
as §1

Another assay addresses T3, GluN1/GluN2A^A108G (Rattus norvegicus, UniProt P35439+Q00959, A108G).
T3 construct: expressed in transfected cells; host or cells: HEK293
In words: Patch clamp in HEK293 cells expressing mutant GluN1/GluN2A A108G. The format is cell-based. As for the experimental part: as §1

The target in another assay is T4, GluN1/GluN2A^M112I (Rattus norvegicus, UniProt P35439+Q00959, M112I).
T4 construct: expressed in transfected cells; host or cells: HEK293
In words: Patch clamp in HEK293 cells expressing mutant GluN1/GluN2A M112I. In kind it is cell-based. As for the experimental part:
as §1

T4 sequence (Q00959 23-1464 M112I, other chains not shown): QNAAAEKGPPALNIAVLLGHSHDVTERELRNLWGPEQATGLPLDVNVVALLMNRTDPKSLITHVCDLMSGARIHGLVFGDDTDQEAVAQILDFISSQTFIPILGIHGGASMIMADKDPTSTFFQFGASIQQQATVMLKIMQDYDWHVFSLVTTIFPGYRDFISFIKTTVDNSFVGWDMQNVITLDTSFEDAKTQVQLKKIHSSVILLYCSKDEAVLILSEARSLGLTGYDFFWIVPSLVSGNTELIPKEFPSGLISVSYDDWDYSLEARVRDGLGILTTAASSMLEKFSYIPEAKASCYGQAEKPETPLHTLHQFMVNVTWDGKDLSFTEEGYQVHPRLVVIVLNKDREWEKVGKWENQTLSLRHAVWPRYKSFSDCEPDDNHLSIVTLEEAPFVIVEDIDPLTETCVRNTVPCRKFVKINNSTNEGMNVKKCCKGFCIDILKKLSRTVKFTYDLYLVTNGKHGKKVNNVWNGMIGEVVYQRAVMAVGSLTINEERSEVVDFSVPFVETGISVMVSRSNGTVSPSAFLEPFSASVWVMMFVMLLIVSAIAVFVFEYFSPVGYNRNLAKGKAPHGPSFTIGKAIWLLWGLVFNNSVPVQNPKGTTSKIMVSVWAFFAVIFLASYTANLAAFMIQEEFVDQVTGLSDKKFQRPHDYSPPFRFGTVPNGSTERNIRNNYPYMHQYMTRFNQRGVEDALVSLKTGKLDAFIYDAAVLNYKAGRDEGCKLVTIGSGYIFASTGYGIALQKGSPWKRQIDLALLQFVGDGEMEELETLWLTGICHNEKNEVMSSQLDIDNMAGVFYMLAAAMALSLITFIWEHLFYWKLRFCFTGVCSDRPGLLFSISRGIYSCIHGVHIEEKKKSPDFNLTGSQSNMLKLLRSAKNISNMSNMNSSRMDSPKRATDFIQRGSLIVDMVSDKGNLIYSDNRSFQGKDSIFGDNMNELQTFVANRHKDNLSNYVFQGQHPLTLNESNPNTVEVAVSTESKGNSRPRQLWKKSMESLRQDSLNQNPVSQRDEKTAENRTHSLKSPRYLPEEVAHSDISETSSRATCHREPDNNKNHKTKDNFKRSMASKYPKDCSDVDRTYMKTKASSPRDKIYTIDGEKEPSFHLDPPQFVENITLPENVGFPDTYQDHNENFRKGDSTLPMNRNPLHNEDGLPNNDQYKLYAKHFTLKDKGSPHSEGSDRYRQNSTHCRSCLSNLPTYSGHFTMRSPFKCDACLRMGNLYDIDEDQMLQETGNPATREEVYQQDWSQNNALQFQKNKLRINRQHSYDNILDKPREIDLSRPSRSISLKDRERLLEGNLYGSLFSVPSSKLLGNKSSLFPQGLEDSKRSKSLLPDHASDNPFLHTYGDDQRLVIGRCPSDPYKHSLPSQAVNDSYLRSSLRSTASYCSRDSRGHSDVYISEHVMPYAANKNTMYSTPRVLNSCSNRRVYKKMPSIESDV
T3 sequence (Q00959 23-1464 A108G, other chains not shown): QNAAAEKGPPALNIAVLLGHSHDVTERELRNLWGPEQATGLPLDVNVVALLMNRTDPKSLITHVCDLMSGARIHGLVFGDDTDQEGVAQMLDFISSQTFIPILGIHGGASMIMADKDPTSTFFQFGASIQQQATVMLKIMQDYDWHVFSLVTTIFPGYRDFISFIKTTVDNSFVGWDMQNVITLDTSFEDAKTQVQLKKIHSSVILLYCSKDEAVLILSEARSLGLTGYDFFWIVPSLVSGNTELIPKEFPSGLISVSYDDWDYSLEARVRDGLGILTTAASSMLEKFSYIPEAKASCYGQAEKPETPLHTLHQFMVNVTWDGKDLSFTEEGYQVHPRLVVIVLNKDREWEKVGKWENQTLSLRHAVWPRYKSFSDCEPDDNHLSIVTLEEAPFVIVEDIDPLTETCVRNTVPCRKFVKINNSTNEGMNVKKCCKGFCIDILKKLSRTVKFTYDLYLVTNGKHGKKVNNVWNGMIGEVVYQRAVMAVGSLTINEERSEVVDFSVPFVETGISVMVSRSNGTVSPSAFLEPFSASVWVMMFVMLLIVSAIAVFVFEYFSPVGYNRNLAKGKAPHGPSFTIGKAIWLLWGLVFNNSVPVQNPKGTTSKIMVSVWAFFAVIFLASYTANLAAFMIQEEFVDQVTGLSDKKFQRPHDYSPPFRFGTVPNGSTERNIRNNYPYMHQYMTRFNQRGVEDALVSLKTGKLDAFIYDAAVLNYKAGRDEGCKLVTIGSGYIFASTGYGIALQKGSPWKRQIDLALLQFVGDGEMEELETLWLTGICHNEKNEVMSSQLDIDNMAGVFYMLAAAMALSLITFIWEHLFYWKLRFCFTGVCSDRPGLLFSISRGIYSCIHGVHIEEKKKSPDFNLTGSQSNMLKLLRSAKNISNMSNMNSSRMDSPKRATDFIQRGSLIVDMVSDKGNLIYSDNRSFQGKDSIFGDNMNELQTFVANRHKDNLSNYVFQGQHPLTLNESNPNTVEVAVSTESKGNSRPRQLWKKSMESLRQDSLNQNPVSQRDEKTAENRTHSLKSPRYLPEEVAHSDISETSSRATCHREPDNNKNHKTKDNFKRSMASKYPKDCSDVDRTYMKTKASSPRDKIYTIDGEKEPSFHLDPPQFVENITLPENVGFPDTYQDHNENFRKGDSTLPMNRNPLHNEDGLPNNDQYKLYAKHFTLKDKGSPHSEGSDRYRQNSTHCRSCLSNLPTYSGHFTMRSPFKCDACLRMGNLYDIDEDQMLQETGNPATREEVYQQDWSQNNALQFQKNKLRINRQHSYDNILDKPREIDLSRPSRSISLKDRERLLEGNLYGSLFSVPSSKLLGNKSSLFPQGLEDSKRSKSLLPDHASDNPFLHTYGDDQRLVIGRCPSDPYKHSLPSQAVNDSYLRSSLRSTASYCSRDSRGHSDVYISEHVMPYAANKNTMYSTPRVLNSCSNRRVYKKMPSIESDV
T2 sequence (Q00959 23-1464 P178G, other chains not shown): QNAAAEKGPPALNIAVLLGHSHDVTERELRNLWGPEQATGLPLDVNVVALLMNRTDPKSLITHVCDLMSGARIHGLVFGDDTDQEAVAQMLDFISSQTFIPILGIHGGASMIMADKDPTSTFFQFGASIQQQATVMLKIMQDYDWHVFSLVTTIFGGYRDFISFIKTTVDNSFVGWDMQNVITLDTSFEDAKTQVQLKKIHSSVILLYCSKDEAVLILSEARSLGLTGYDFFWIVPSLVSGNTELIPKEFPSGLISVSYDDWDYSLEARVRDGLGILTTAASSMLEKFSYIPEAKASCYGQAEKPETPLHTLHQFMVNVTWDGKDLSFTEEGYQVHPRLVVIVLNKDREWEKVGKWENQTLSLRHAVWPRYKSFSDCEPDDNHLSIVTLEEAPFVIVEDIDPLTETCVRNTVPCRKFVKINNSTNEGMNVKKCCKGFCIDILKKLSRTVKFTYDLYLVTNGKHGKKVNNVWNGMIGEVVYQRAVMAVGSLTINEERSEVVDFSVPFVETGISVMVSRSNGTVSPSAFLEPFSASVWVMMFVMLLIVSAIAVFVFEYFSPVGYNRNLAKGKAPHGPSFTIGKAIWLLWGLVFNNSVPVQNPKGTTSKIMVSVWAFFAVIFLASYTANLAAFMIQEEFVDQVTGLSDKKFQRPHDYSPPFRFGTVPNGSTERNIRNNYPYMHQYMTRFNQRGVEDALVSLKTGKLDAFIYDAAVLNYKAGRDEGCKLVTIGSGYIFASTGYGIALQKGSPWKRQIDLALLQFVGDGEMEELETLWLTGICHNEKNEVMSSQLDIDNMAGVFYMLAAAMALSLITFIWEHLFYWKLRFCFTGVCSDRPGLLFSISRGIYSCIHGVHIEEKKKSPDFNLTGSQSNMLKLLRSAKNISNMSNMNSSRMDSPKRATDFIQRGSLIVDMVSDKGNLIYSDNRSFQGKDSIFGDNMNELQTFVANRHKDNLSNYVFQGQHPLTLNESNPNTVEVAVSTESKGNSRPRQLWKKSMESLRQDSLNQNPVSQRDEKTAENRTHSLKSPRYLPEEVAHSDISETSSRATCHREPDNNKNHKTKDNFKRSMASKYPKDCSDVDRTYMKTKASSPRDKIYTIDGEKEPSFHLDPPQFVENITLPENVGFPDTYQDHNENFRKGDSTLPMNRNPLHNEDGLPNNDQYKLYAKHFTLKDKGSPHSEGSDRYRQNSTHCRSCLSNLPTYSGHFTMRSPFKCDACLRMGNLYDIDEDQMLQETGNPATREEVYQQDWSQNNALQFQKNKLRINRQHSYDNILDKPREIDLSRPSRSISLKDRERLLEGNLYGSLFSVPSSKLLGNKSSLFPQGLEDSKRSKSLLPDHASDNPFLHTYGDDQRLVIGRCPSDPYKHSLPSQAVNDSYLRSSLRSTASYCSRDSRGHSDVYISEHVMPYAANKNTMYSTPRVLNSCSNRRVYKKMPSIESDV

Take `CCOc1cc(Cl)c(Cl)c(/C=N/NC(=O)c2ccccc2Br)c1O` [Npam43, (E)-2-bromo-N′-(2,3-dichloro-5-ethoxy-6-hydroxybenzylidene)benzohydrazide]: the Reduction in potentiation in the assay with GluN1 or GluN2A mutants is given as 10-62%. In addition, the Relative potentiation at GluN1/GluN2A^F115Y (Table 3) stood at 100 ± 4.2%; on GluN1/GluN2A^P178G (Table 3), 95.5 ± 3.8%; on GluN1/GluN2A^A108G (Table 3) it was 210 ± 9.0%; on GluN1/GluN2A^M112I (Table 3) it was 255 ± 19%. The “Net Difference potentiation” value at GluN1/GluN2A^F115Y (normalized to wild-type) was −52.2 ± 0.52%; at GluN1/GluN2A^P178G (normalized to wild-type) it was −54.3 ± 0.42%; on GluN1/GluN2A^A108G (normalized to wild-type), “+0.48 ± 0.01%”; at GluN1/GluN2A^M112I (normalized to wild-type), “+22.2 ± 0.94%”. Further, the “pCREB levels in hippocampal and cortical tissue” value in the assay with pCREB is “elevated”.

The values above are taken from US11166924B2, “N-methyl-d-aspartate receptor allosteric modulators and methods for their use” (Qingdao Primedicine Pharmaceutical Company, Ltd., priority 2016, dated 2021).
